The source of these data is ChEMBL document CHEMBL1131014, “Three-dimensional quantitative similarity-activity relationships (3D QSiAR) from SEAL similarity matrices” (J Med Chem, 1998).

The first assay has as its target T1, Corticosteroid-binding globulin (Homo sapiens) (UniProt P08185).
T1 sequence (whole entry): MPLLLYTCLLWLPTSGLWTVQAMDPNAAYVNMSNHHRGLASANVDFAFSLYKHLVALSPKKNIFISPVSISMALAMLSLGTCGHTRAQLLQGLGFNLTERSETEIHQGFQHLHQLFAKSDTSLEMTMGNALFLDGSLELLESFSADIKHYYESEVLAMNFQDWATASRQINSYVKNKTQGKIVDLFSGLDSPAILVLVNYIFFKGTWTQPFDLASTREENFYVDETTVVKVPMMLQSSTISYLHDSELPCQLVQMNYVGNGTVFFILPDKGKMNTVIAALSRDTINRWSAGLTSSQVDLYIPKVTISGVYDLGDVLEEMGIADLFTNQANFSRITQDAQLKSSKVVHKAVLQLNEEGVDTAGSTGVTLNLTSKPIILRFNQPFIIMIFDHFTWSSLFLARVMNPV
Description: Binding affinity to corticosteroid binding globulin
With `C[C@]12CCC(=O)C=C1CCC1[C@@H]2[C@@H](O)C[C@@]2(C)[C@H]1CC[C@]2(O)C(=O)CO` (single isomer, unassigned), the Log K stood at 7.88.

For `CC(=O)[C@@]1(O)CC[C@H]2[C@@H]3CCC4=CC(=O)CC[C@]4(C)[C@H]3CC[C@@]21C`, the Log K was determined as 7.74.

Turning to `C[C@]12C[C@@H](O)[C@H]3[C@@H](CCC4=CC(=O)CC[C@@]43C)[C@@H]1CC[C@@H]2C(=O)CO`, the Log K worked out at 7.2.

Consider `C[C@]12CCC(=O)C=C1CC[C@@H]1[C@@H]2[C@@H](O)C[C@]2(C=O)[C@@H](C(=O)CO)CC[C@@H]12`, for which the Log K turned out to be 6.28.

`CC(=O)[C@H]1CC[C@H]2[C@@H]3CCC4=CC(=O)CC[C@]4(C)[C@H]3CC[C@]12C` registered a Log K of 7.38.

Regarding `C[C@]12CC[C@H](O)CC1=CC[C@@H]1[C@@H]2CC[C@]2(C)C(=O)CC[C@@H]12`, the Log K stood at 5.

The compound `C[C@]12CC[C@H]3[C@@H](CCC4=CC(=O)CC[C@@]43C)[C@@H]1CC[C@@H]2O` displayed a Log K of 6.72.

In turn, `CC(=O)[C@H]1CC[C@H]2[C@@H]3CC=C4C[C@@H](O)CC[C@]4(C)[C@H]3CC[C@]12C` gave a Log K of 5.25.

Compound `CC(=O)[C@@]1(O)[C@H](O)C[C@H]2[C@@H]3CCC4=CC(=O)CC[C@]4(C)[C@H]3CC[C@@]21C` yielded a Log K of 6.25.

As for `CC(=O)[C@H]1CC[C@H]2[C@@H]3CCC4=CC(=O)CC[C@]4(C)[C@H]3C(=O)C[C@]12C`, the Log K amounted to 6.78.

The compound `C[C@]12CC[C@H]3[C@@H](CCC4=CC(=O)CC[C@@H]43)[C@@H]1CC[C@@H]2O` returned a Log K of 6.14.

Regarding `C[C@]12CC[C@H](O)C[C@@H]1CC[C@@H]1[C@@H]2CC[C@]2(C)[C@@H](O)CC[C@@H]12`, the Log K is 5.

`CC(=O)OCC(=O)[C@@]1(O)CC[C@H]2C3CCC4=CC(=O)CC[C@]4(C)[C@H]3[C@@H](O)C[C@@]21C` (single isomer, unassigned) showed a Log K of 7.55.

For `CC(=O)[C@@]1(O)CC[C@H]2[C@@H]3CC[C@@H]4C[C@H](O)CC[C@]4(C)[C@H]3CC[C@@]21C`, the Log K amounted to 5.

As for `C[C@]12CCC(=O)C=C1CC[C@@H]1[C@@H]2CC[C@@]2(C)[C@H]1CC[C@]2(O)C(=O)CO`, the Log K is 7.88.

In the case of `C[C@]12CCC(=O)C=C1CCC1[C@@H]2C(=O)C[C@@]2(C)[C@H]1CC[C@]2(O)C(=O)CO` (single isomer, unassigned), the Log K came out at 6.89.

`C[C@]12CC[C@H]3[C@@H](CCC4=CC(=O)CC[C@@]43C)[C@@H]1CC[C@@H]2C(=O)CO` showed a Log K of 7.65.

In the case of `CC(=O)[C@H]1CC[C@H]2[C@@H]3CCC4=CC(=O)CCC4[C@H]3CC[C@]12C` (stereo not given in full), the Log K is 6.82.

`C[C@@H]1C[C@@]2(C)C(=CC1=O)CC[C@H]1[C@@H]3CC[C@](O)(C(=O)CO)[C@@]3(C)C[C@H](O)[C@@]12F` had a Log K of 5.8.

`CC(=O)[C@H]1[C@H](C)C[C@H]2[C@@H]3CCC4=CC(=O)CC[C@]4(C)[C@H]3CC[C@@]21C` came in with a Log K of 7.12.

Consider `C[C@]12C[C@H](O)[C@H]3[C@@H](CCC4=CC(=O)CC[C@@]43C)[C@@H]1CC[C@@H]2C(=O)CO`, for which the Log K stood at 7.88.

As to `C[C@]12CCC(=O)C=C1CC[C@@H]1[C@@H]2CC[C@]2(C)C(=O)CC[C@@H]12`, the Log K stood at 5.76.

Take `C[C@]12CC[C@@H]3c4ccc(O)cc4CC[C@H]3[C@@H]1C[C@@H](O)[C@@H]2O`: the Log K was 5.

Turning to `C[C@]12C=CC(=O)C=C1CCC1[C@@H]2[C@@H](O)C[C@@]2(C)[C@H]1CC[C@]2(O)C(=O)CO` (single isomer, unassigned), the Log K was 7.51.

The next assay deals with T2, Corticosteroid-binding globulin (Sus scrofa) (UniProt Q9GK37).
T2 sequence (whole entry): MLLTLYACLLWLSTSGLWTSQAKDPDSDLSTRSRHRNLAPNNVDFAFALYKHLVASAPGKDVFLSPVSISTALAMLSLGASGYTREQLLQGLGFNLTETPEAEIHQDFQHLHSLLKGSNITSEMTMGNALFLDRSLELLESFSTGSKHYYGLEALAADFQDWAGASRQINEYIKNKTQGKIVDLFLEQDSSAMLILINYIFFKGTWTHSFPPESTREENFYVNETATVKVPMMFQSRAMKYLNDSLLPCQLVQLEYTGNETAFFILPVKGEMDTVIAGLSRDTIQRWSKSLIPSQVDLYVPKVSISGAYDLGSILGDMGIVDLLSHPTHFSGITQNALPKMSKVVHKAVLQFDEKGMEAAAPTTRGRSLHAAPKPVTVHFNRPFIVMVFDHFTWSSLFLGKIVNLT
Description: Compound was tested for Corticosteroid binding globulin affinity
The compound `C[C@]12CC[C@@H]3c4ccc(O)cc4CC[C@H]3[C@@H]1CC[C@@H]2O` yielded a Log K of 5.
